Calls of active or inactive are those of the source.
Experiments:
Caspase-3 = molecular target: T1, Caspase-3 (Homo sapiens, UniProt P42574); format: functional;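 note: Dose-response selectivity test against caspase-3 for candidate inhibitors of sentrin-specific proteases (SENPs)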
T1 sequence (P42574 whole entry): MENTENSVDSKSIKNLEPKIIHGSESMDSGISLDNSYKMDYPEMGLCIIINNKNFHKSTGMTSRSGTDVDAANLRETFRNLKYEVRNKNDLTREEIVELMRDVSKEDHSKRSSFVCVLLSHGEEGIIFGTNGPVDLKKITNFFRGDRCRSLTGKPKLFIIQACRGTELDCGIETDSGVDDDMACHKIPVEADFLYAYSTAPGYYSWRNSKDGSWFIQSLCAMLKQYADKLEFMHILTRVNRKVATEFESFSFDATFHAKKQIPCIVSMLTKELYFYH

[1] = molecular target: T2, Sentrin-specific protease 7 (Homo sapiens, UniProt Q9BQF6); format: functional;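 note: Luminescence-based dose-response confirmation of ultra-high-throughput screening hits, measuring inhibition of SENP7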
T2 sequence (Q9BQF6 whole entry): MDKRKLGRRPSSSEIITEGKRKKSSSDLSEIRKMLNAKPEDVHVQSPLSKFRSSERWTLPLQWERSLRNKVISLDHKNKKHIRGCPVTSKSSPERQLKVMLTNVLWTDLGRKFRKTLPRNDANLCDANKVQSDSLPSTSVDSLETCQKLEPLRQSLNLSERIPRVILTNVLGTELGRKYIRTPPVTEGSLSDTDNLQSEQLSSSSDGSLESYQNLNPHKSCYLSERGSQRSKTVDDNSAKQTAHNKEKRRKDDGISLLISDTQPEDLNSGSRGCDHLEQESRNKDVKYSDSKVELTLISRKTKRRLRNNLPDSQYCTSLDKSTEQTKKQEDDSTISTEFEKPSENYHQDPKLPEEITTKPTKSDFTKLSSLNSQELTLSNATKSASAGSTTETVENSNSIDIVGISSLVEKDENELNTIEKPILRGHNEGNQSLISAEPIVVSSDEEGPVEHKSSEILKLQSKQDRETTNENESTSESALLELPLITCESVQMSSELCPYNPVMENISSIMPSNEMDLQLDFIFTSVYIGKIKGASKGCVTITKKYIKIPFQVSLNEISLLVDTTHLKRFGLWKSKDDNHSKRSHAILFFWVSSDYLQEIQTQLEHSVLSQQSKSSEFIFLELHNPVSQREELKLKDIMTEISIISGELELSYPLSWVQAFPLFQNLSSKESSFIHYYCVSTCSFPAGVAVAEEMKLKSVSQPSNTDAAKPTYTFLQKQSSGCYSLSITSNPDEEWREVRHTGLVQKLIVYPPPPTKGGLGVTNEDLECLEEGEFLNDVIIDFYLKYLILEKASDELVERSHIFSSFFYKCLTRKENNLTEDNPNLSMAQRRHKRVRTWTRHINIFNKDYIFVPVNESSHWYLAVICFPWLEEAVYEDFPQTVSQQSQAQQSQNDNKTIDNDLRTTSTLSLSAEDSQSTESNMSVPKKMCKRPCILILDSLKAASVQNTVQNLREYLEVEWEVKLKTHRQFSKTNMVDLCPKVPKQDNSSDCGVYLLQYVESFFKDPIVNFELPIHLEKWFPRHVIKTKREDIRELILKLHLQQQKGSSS

[2] = molecular target: T3, Sentrin-specific protease 6 (Homo sapiens, UniProt Q9GZR1); format: functional;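 note: Luminescence-based dose-response confirmatory assay of SENP6 inhibition, following up an ultra-high-throughput screen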
T3 sequence (Q9GZR1 whole entry): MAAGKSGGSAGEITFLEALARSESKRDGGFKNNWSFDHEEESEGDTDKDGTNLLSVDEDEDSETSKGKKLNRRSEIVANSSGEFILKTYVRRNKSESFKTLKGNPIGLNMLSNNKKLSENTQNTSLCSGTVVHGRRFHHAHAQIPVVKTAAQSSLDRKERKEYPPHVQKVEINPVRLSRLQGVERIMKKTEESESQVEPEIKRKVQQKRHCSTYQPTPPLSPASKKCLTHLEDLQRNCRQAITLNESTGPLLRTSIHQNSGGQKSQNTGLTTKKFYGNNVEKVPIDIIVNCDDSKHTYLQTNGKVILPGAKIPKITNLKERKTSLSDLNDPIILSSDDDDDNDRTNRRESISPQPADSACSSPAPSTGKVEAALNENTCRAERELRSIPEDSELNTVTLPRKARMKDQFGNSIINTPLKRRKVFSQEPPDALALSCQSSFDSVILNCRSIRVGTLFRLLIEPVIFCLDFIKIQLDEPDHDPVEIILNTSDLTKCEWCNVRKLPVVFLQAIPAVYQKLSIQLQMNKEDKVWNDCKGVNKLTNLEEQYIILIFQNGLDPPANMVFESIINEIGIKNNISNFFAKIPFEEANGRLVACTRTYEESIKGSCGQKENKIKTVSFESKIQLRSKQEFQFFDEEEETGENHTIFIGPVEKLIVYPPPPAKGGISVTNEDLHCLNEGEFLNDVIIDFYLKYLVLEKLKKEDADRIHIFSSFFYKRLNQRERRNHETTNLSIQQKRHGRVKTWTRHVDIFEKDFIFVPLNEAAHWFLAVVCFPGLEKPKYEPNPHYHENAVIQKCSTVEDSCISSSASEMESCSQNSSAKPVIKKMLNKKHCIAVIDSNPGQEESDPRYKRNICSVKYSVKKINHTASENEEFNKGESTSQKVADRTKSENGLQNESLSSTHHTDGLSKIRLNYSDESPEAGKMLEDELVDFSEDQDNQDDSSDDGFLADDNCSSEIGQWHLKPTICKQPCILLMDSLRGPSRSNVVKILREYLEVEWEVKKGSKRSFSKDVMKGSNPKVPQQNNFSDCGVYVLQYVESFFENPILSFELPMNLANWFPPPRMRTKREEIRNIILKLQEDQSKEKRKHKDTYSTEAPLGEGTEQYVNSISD

[3] = molecular target: T4, Sentrin-specific protease 8 (Homo sapiens, UniProt Q96LD8); format: functional;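 note: luminescence read-out of SENP8 inhibition, dose-response confirmation following an ultra-high-throughput screen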
T4 sequence (Q96LD8 whole entry): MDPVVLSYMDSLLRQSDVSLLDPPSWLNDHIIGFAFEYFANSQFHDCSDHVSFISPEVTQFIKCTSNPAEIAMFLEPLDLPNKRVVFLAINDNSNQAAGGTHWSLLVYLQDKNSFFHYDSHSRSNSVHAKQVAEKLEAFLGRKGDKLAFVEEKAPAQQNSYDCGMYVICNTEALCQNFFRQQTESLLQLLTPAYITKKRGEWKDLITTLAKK

Vero = experiment: cells; format: functional; conditions: Chlorocebus sabaeus
Genome polyprotein = Genome polyprotein (dengue virus type 2, UniProt P29990); experiment: Dengue-2 NS5 methyltransferase inhibitors, primary screen, biochemical, confirmation dose response (AID 588689); format: functional
[4] = molecular target: T5, Rac GTPase-activating protein 1 (Homo sapiens, UniProt Q9H0H5); experiment: MgcRacGAP GTPase-activating activity inhibitors, confirmation, biochemical, ADP Hunter fluorescence, primary and confirmatory (AID 624330); format: functional
T5 sequence (Q9H0H5 whole entry): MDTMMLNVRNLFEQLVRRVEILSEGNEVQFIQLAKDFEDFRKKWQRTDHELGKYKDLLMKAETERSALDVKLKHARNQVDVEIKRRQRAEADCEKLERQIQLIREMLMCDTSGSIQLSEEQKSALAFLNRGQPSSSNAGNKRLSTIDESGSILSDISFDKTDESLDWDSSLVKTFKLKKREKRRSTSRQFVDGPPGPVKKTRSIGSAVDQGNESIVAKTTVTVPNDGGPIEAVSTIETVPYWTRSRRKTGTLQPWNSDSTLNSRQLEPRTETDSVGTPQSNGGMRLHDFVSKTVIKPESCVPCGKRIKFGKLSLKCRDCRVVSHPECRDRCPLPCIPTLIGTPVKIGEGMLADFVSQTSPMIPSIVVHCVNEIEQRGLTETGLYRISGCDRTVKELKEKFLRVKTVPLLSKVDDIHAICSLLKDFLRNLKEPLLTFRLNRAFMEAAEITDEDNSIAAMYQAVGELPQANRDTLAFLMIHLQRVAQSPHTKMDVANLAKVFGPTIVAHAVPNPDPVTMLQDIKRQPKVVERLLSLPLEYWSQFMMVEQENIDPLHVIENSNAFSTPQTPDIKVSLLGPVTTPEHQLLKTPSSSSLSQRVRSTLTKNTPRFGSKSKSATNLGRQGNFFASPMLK

Cytochrome P450 2D6 = Cytochrome P450 2D6 (Homo sapiens, UniProt P10635);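 note: CYP2D6 member of a cytochrome P450 panel assay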
[5] = HEp-2 cell cytotoxicity, dose response, cytotoxicity control for RSV inhibitor project, HTS (AID 2410); format: functional; conditions: human respiratory syncytial virus
[6] = molecular target: T6, Replicative DNA helicase DnaB (Mycobacterium tuberculosis, UniProt P9WMR3); experiment: DnaB intein splicing inhibitors, dose response, biochemical, cell-free fluorescence (AID 449749); format: functional
T6 sequence (P9WMR3 whole entry): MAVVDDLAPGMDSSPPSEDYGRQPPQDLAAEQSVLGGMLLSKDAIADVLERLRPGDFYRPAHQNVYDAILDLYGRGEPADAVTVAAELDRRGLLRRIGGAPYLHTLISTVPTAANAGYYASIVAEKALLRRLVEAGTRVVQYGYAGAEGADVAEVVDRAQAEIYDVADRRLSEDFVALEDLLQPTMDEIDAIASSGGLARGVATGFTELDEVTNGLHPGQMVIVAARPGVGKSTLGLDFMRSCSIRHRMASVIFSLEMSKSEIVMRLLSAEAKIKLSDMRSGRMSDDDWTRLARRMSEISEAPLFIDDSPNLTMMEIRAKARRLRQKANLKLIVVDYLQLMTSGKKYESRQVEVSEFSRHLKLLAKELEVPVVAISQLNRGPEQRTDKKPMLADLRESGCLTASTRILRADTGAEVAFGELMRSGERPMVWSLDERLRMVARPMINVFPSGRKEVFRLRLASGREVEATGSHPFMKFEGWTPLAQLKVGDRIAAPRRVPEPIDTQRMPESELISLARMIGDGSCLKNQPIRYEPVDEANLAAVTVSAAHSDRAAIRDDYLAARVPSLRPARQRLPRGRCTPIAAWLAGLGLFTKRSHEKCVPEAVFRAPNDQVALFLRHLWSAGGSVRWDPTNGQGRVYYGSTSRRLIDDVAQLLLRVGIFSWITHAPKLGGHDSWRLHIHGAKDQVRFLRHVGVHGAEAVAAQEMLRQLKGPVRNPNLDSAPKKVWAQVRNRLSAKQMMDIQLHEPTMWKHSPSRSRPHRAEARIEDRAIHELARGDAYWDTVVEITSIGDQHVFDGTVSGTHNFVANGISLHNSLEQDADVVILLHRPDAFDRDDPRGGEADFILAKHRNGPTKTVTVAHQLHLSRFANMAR

Protein RecA = molecular target: T7, Protein RecA (Mycobacterium tuberculosis, UniProt P9WHJ3); experiment: Fluorescence Cell-Free Homogeneous Dose Retest to Identify Inhibitors of RecA-Intein Splicing Activity. [Related pubchem assays (depositor defined):AID2097, AID2223, AID489010, AID492950]; format: functional
T7 sequence (P9WHJ3 whole entry): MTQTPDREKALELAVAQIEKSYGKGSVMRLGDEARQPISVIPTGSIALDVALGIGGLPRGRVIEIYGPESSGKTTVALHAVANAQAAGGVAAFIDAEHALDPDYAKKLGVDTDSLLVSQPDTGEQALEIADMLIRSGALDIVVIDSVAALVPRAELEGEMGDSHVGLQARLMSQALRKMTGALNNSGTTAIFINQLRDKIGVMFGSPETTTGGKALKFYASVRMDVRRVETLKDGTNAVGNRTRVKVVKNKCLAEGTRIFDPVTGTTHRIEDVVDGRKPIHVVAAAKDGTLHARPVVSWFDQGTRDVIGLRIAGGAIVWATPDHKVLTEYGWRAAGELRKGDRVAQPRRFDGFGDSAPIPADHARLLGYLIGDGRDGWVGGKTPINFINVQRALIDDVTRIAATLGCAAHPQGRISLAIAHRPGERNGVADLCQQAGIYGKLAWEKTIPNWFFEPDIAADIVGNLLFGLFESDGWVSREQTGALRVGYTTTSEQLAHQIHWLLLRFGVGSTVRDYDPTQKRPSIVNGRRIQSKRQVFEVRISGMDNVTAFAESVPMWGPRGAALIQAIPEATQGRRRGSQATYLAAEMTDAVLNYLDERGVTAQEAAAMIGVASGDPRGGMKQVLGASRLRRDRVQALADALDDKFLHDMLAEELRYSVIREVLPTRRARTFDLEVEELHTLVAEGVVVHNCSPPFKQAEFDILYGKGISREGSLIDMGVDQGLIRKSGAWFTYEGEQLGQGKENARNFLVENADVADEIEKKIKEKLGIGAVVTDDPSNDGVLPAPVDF

Genome polyprotein, sequence (P29990 2492-3391 limits assumed): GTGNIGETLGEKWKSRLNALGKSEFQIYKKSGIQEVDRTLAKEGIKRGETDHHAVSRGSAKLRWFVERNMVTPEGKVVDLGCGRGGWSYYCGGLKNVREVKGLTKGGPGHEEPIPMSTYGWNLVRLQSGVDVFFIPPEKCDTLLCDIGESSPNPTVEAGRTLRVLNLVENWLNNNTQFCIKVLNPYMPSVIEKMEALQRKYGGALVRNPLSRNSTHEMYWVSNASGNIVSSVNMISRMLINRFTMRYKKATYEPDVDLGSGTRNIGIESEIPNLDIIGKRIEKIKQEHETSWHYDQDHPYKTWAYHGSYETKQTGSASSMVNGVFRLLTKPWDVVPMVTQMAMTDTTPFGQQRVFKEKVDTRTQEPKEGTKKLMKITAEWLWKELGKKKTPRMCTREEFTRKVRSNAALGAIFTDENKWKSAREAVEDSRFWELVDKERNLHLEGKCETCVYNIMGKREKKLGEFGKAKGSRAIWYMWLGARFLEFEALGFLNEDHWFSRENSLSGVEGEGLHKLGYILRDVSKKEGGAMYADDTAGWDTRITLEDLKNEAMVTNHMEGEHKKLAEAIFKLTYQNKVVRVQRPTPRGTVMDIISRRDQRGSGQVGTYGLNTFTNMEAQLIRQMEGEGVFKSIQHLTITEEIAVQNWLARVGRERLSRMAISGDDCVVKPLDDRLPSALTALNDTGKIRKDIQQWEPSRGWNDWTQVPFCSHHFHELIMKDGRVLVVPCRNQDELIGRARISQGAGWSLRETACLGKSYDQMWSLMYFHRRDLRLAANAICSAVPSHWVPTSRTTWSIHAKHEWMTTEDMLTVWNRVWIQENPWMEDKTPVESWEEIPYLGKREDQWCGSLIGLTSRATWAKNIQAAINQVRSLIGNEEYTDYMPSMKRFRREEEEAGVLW
Cytochrome P450 2D6, sequence (P10635 whole entry): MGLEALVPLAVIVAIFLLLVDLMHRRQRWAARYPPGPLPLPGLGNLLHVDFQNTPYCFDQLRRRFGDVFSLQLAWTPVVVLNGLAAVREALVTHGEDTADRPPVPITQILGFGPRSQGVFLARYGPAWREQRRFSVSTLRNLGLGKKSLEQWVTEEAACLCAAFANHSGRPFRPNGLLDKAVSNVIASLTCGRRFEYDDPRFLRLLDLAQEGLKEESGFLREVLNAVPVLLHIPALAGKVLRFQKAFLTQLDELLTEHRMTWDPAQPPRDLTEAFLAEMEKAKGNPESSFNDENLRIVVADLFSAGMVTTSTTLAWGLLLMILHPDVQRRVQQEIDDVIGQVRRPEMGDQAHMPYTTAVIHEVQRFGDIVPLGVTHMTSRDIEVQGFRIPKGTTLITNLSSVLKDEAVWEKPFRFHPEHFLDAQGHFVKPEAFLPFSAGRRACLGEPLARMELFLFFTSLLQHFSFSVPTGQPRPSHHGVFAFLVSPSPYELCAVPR

Structure (SMILES) | IC50 (Caspase-3) | IC50 [1] | IC50 [2] | IC50 [3] | CC50 (Vero) | also measured
Nc1[nH]n(-c2ccccc2)c(=O)c1N=Nc1ccccc1 | 20.2 µM (active) | 4.47 µM (active) | > 100 µM (inactive) | > 100 µM (inactive) |  | 
CNC[C@H](CC1CCCCC1)NC[C@H](NCCC1CCCC1)[C@H](C)O |  |  |  |  | > 25 µM (active) | 
O=C1NN(c2ccccc2)C(=O)C1=Cc1ccccc1O |  |  |  |  |  | IC50 (Genome polyprotein): 34.6 µM (active); IC50 [4]: 81.3 µM (active)
O=C(Nc1ccc(Cl)cc1)Nc1nccs1 | 21.7 µM (active) | 7.33 µM (active) | 14.6 µM (active) | 15.5 µM (active) |  | AC50 (Cytochrome P450 2D6): 31.6 µM (inconclusive)
CC(=O)Nc1ccc(S(=O)(=O)Nc2cccc(-c3nc4cc(C)ccc4o3)c2)cc1 |  |  |  |  | > 25 µM (active) | CC50 [5]: 9.33 µM (active)
COc1cccc(C(=O)OCC(=O)c2ccc(Br)s2)c1 | 26.8 µM (active) | 10.3 µM (active) | 14.6 µM (active) | 21.6 µM (active) |  | 
CCOc1cc2c(cc1O)C(=NO)CC1C2CCC2(C)C(O)CCC12 (configuration not stated) |  |  |  |  | 4.99 µM (active) | 
Cc1ccc(N2C(=O)NC(=O)/C(=C/c3ccc(OC(=O)c4cccs4)cc3)C2=O)cc1 |  |  |  |  |  | AC50 [6]: 0.64 µM (active); EC50 (Protein RecA): 0.772 µM (active); IC50 (Genome polyprotein): 55.4 µM (active)

— ChEMBL document CHEMBL1201862, “PubChem BioAssay data set” (2004)
